Where a name gives a salt, the structure may show the parent alone.
Key:
[1] = system: HCT116 cells; experiment: Inhibition of cancer cell proliferation (MTT, GIC50); type: cell-based; details: Homo sapiens, HCT-116, 48 h incubation
Procedure: HCT116 cells derived from human colorectal cancer were used, and a cancer cell proliferation inhibition effect of a biguanide derivative was confirmed by measuring a concentration value (cell growth inhibition concentration, GIC50) at which cell growth was inhibited 50% using a 3-(4,5-dimethylthiazol-2-yl)-2,5-diphenyltetrazolium bromide (MTT) reagent.
First, the HCT116 cells were put on a 96-well plate and incubated for 24 hours to each have cell count of approximately 5000 in a DMEM medium containing 10% fetal bovine serum. Subsequently, to obtain the GIC50 value of each compound, 100 μM (or 200 μM), 25 μM, 6.25 μM, 1.56 μM or 0.39 μM of the compound was treated to each culture medium and then incubated for 48 hours. To confirm living cells after treatment with the compound, MTT was added to each culture medium and further incubated for 3 hours. Generated formazane crystal was dissolved using dimethyl sulfoxide (DMSO), and absorbance of the solution was measured at 560 nm. After the 48-hour incubation, a ratio of […] synthesized in the examples was indicated as cell viability (%) according to each administered concentration. A cell viability curve was plotted using the cell viability (%) and the calculated concentration value (GIC50) of the compound, at which 50% of the growth was inhibited, to confirm an effect on the inhibition of cancer cell proliferation.

[2] = system: AMPK; experiment: AMPK activation (AMPKα immunoassay kit, phospho-Thr172) in MCF7 cells; type: cell-based, human; design: AMPK Activation 50 uM (degree of phosphorylated AMPKα Thr172): unit not given here; details: 24 h; for AMPK Activation 50 uM (degree of phosphorylated AMPKα Thr172): 50 uM compound
Procedure: The MCF7 cells were put on a 6-well plate and incubated in a DMEM medium containing 10% fetal bovine serum in an incubator to which 5% CO2 was supplied to have a cell count of approximately 5×10^5. 50 μM of the derivatives synthesized in the examples were treated to the each culture medium, and the cells were incubated for 24 hours. Subsequently, the cells were lysed by a method presented in the operation manual of the AMPKα immunoassay kit, and 20 μg of cell lysates were yielded through protein assay.

[3] = 50 uM compound vs 0 (no compound)

| SMILES | IC50 [1] [µM] | melting point [°C] | AMPK Activation Fold [2, 3] | AMPK Activation 50 uM (degree of phosphorylated AMPKα Thr172) [2] | AMPK Activation Fold ([2]; 1 mM metformin vs 0 (no compound)) | AMPK Activation (@ 1 mM) (degree of phosphorylated AMPKα Thr172) ([2]; 1 mM metformin) |
| --- | --- | --- | --- | --- | --- | --- |
| CCCC/N=C(/NC(=N)N)NC1CCCCCC1.Cl [Example 1, N4-butyl-N5-cycloheptyl biguanide hydrochloride] | > 200 | – | 4.0 | 21.1 | – | – |
| CCCCN/C(=N\C(C)CC)NC(=N)N.Cl (stereo not drawn) [Example 12, N4-(butane-2-yl)-N5-butyl biguanide hydrochloride] | > 200 | 193 to 194 | 1.5 | 8.1 | – | – |
| C=CC/N=C(\NCCCC)NC(=N)N.Cl [Example 13, N4-allyl-N5-butyl biguanide hydrochloride] | > 200 | – | 3.9 | 20.5 | – | – |
| CCCCN/C(=N\Cc1ccco1)NC(=N)N.Cl [Example 15, N4-(furane-2-yl)methyl-N5-butyl biguanide hydrochloride] | > 200 | – | 3.7 | 19.4 | – | – |
| CCCCN/C(=N\Cc1ccccc1)NC(=N)N.Cl [Example 18, N4-benzyl-N5-butyl biguanide hydrochloride] | > 200 | – | 1.8 | 9.6 | – | – |
| CCCCN/C(=N\Cc1ccc(OC)cc1)NC(=N)N.Cl [Example 22, N4-(4-methoxyl)benzyl-N5-butyl biguanide hydrochloride] | > 100 | – | 4.4 | 29.9 | – | – |
| CCCCN/C(=N\CCc1ccc(Cl)cc1)NC(=N)N.Cl [Example 25] | – | 123 to 124 | 6.7 | 16.7 | – | – |
| C=CC/N=C(\NCc1ccccc1)NC(=N)N.Cl [Example 29, N4-allyl-N5-benzyl biguanide hydrochloride] | > 200 | – | 1.0 | 5.5 | – | – |
| Cl.N=C(N)N/C(=N/C1CCCCCC1)NCc1ccccc1 [Example 31, N4-cycloheptyl-N5-benzyl biguanide hydrochloride] | > 100 | – | 6.6 | 44.6 | – | – |
| Cl.N=C(N)N/C(=N/c1ccccc1)NCCc1ccccc1 [Example 35, N4-phenyl-N5-(phenethyl)biguanide hydrochloride] | – | 232 to 233 | 1.3 | 9.0 | – | – |
| Cl.N=C(N)N/C(=N/Cc1ccco1)NCCc1ccccc1 [Example 38, N4-(furan-2-yl)methyl-N5-(phenethyl)biguanide hydrochloride] | > 100 | – | 3.2 | 22.0 | – | – |
| CN(C)C(=N)N=C(N)N [Metformin HCl, reference compound] | – | – | – | – | 3.2 | 21.5 |

Second part, led by results:

| IC50 [1] [µM] | melting point [°C] | SMILES | AMPK Activation Fold [2, 3] | AMPK Activation 50 uM (degree of phosphorylated AMPKα Thr172) [2] | AMPK Activation Fold ([2]; 1 mM metformin vs 0 (no compound)) | AMPK Activation (@ 1 mM) (degree of phosphorylated AMPKα Thr172) ([2]; 1 mM metformin) |
| --- | --- | --- | --- | --- | --- | --- |
| > 100 | 170 to 171 | CCC/N=C(\NC)NC(=N)N.Cl [Example 2, N4-propyl-N5-methyl biguanide hydrochloride] | 1.0 | 6.5 | – | – |
| > 100 | – | CCCCCC/N=C(\NC)NC(=N)N.Cl [Example 3, N4-hexyl-N5-methyl biguanide hydrochloride] | 5.2 | 35.5 | – | – |
| > 100 | 156 to 157 | C=CC/N=C(\NC)NC(=N)N.Cl [Example 4, N4-allyl-N5-methyl biguanide hydrochloride] | 0.8 | 5.3 | – | – |
| > 100 | 113 to 115 | CN/C(=N\Cc1ccccc1)NC(=N)N.Cl [Example 5, N4-benzyl-N5-methyl biguanide hydrochloride] | 1.6 | 10.8 | – | – |
| > 100 | 126 to 127 | CN/C(=N\CCc1ccccc1)NC(=N)N.Cl [Example 6, N4-(phenetyl)-N5-methyl biguanide hydrochloride] | 4.9 | 33.1 | – | – |
| > 100 | 175 to 176 | CCCCCC/N=C(/NC(=N)N)NC(C)CC.Cl (stereo not drawn) [Example 7, N4-hexyl-N5-(butane-2-yl)biguanide hydrochloride] | 5.8 | 39.5 | – | – |
| > 100 | 181 to 183 | CCC(C)N/C(=N\CCc1ccccc1)NC(=N)N.Cl (stereo not drawn) [Example 8, N4-(phenetyl)-N5-(butyl-2-yl)biguanide hydrochloride] | 2.7 | 18.4 | – | – |
| > 100 | 112 to 114 | CCCC/N=C(\NCCCC)NC(=N)N.Cl [Example 9, N4,N5-dibutyl biguanide hydrochloride] | 3.8 | 25.6 | – | – |
| 30.3 | – | CCCCCC/N=C(\NCCCC)NC(=N)N.Cl [Example 10, N4-hexyl-N5-butyl biguanide hydrochloride] | 7.2 | 38.1 | – | – |
| > 100 | 173 to 175 | CCCCN/C(=N\C(C)C)NC(=N)N.Cl [Example 11, N4-isopropyl-N5-butyl biguanide hydrochloride] | 0.6 | 4.2 | – | – |
| 54.1 | – | CCCCN/C(=N\Cc1cccc(Cl)c1)NC(=N)N.Cl [Example 20, N4-(3-chloro)benzyl-N5-butyl biguanide hydrochloride] | 1.5 | 7.2 | – | – |
| 13.5 | 113 to 115 | CCCCN/C(=N\Cc1ccc(Cl)cc1)NC(=N)N.Cl [Example 21, N4-(4-chloro)benzyl-N5-butyl biguanide hydrochloride] | – | – | – | – |
| 35.3 | – | CCCCN/C(=N\Cc1ccc(Cl)c(Cl)c1)NC(=N)N.Cl [Example 23, N4-(3,4-dichloro)benzyl-N5-butyl biguanide hydrochloride] | 7.8 | 19.5 | – | – |
| 26.5 | – | CCCCN/C(=N\CCc1ccc(Cl)cc1)NC(=N)N.Cl [Example 25, N4-(4-chloro)phenethyl)-N5-butyl biguanide hydrochloride] | – | – | – | – |
| 6.5 | 178 to 179 | CCCC/N=C(\NCCc1ccccc1)NC(=N)N.Cl [Example 33, N4-butyl-N5-(phenethyl)biguanide hydrochloride] | – | – | – | – |
| 9.3 | 115 to 116 | Cl.N=C(N)N/C(=N/c1ccc(Cl)cc1)NCCc1ccccc1 [Example 36, N4-(4-chloro)phenyl-N5-(phenethyl)biguanide hydrochloride] | – | – | – | – |
| 99.1 | – | COc1ccc(C/N=C(/NC(=N)N)N(C)Cc2cccc3ccccc23)cc1.Cl [Example 46, N4-(4-methoxyl)benzyl-N5,N5-(1-naphthylmethyl)-(methyl) biguanide hydrochloride] | 3.7 | 19.5 | – | – |
